Reference: patent US6939876B2, “Prevention of addiction in pain management” (priority 2001, dated 2005)

Tests used:
male Sprague-Dawley rats [1] = assay: Heroin-induced conditioned place preference (CPP), expression phase; assay type: in vivo; settings: for Time spent in chambers, Paired / Time spent in chambers, Unpaired: mean ± S.E.M.
Excerpt: In all rodent studies, male Sprague-Dawley rats were used (200-225 g. Taconic farms, Germantown, N.Y.). Animals were allowed to acclimate to the animal housing facility for at least 5 days prior to beginning the experiments. Conditioned place preference (CPP) chambers were used as previously described (Lepore et al., 1995), except instead of one chamber being entirely white and the other black, one chamber was entirely light blue with a stainless steel floor and the second chamber was light blue with horizontal black stripes (2.5 cm wide) spaced 3.8 cm apart with a smooth plexiglass floor. In all CPP studies with GVG, the saline volume was (1 ml/kg), and the heroin doses were 1.5 mg/kg. The saline, heroin and GVG were all injected intraperitonealy (i.p.). The conditioning procedure for the acquisition phase consisted of 12 sessions carried out consecutively over 12 days.
The CPP pairings were: 1) saline/saline 2) saline/heroin 3) GVG/saline 4) saline/heroin and GVG. The animals in each group were randomly assigned to a 2×2 factorial design ,with one factor being the pairing chamber and the other factor being the order of conditioning. The animals that received either saline or heroin were injected and confined to the appropriate compartment for 30 minutes. The GVG injections were given 3 hours before saline or heroin injection and subsequent placement of the animals in the appropriate chamber. This was done as it has been shown that GABA levels reach maximal values 3 to 4 hours following GVG administration.
On the test day (day 12), neither drugs nor saline were administered and the animal was allowed to move freely between both chambers for fifteen minutes. The amount of time spent in each chamber was recorded using an automated infrared beam electronically coupled to a timer. For the expression phase of CPP to heroin, the animals were habituated and conditioned to heroin as described in the acquisition studies, but no animals in the expression studies were given GVG on conditioning days. On the test day (day 12), the animals being tested in the expression phase, unlike the animals in the acquisition phase, received either saline or GVG 2.5 hours before they were placed in the apparatus and allowed free access to both chambers for 15 minutes.

[2] = system: extracellular DA concentrations in the nucleus accumbens (NAcc); assay: In vivo microdialysis: morphine-induced extracellular DA in the nucleus accumbens of freely moving rats; design: species or system Sprague-Dawley rats
Excerpt: The effects of increased endogenous GABA activity on morphine-induced extracellular DA concentrations in the nucleus accumbens (NAcc) of freely moving rats was explored.
All animals there used under an IACUC-approved protocol and with strict adherence to the NIH guidelines. Adult male Sprague-Dawley rats (200-300 g, Taconic Farms), housed in the animals care facility under 12:12 light/dark conditions, were placed into 6 groups (n=3-6), anesthetized and siliconized guide cannulae were stereotactically implanted into the right NAcc (2.0 mm anterior and 1.0 mm lateral to bregms, and 7.0 mm ventral to the cortical surface) and prefrontal cortex (PFC) at least 4 days prior to study. Microdialysis probes (2.0 mm, Bioanalytical Systems, BAS, West Lafayette. Ind.) were positioned within the guide cannulae and artificial cerebrospinal fluid (ACSF. 155.0 mM NA^−, 1.1 mM Ca^2−, 2.9 mM K^−, 132.76 mM Cl^−, and 0.83 mM Mg^2−) was administered through the probe using a CMA/100 microinfusion pump (BAS) at a flow rate of 2.0 μl/min.
Animals were placed in bowls, and probes were inserted and flushed with ACSF overnight. On the day of the study. a minimum of three samples were injected to determine baseline stability. Samples were collected for 20 min. and injected on-line (CMA/160, BAS). The average dopamine concentration of these three stable samples was defined as control (100%). and all subsequent treatment values were transformed to a percentage of that control. Upon establishing a stable baseline, the morphine was administered by intraperitoneal (i.p.) injection. The high performance liquid chromatography (HPLC) system consists of a BAS reverse-phase column (3.0 μC-18), a BAS LC-4C electrochemical transducer with a dual/glassy carbon electrode set at 650 mV, a computer that analyzes data on-line using a commercial software package (Chromograph Bioanalytical Systems), and a dual pen chart recorder. The mobile phase (flow rate 1.0 ml/min) consisted of 7.0% methanol, 50 mM sodium phosphate monobasic, 1.0 mM sodium octyl sulfate, and 0.1 mm […], pH 4.0. DA eluted at 7.5 min.
Gamma-vinyl GABA (GVG), an irreversible inhibitor of GABA-transaminase, was administered by intraperitoneal injection 2.5 hours prior to morphine (7 mg/kg). In all studies, animals were placed in the microdialysis bowls the night before the experiment and artificial cerebrospinal fluid (ACSF) was perfused through the microdialysis probes at a flow rate of 2.0 μl/min. At the end of each study, animals were sacrificed and their brains were removed and sectioned for probe placement verification
Levels of extracellular DA were sampled from the NAcc continuously using a stereoaxically implanted probe. Morphine alone increases DA concentrations 50% above baseline in the NAcc (p<0.01, T=3.79).

male Sprague-Dawley rats [3] = assay: Hot plate test (53 degrees Centigrade), latency to forepaw licking; assay type: in vivo; settings: for Licking latency: mean ± S.E.M., 10 rats
Protocol: The effect of GVG on the analgesic potency of morphine in male Sprague-Dawley rats was examined using the hot plate test. In this paradigm, animals are treated and placed on a hot plate at a temperature of 53 degrees Centigrade and the latency to licking of one of the forepaws was measured. This test is used as screen for agents that have moderate to significant analgesic action as these drugs will increase latency to forepaw licking.
The rats were treated with either vehicle or GVG 2.5 hours prior to receiving either vehicle or morphine. Animals were given either vehicle or morphine 30 minutes prior to placing them on a hot plate at a constant temperature of 53 degrees Centigrade. Analgesic potency was assessed by measuring the latency to forepaw licking after placement on the hot plate. A total of 10 rats were examined for each treatment group.

[4] = pairing Vehicle/Heroin (heroin 1.5 mg/kg i.p.), vehicle on test day
[5] = pairing Vehicle/Heroin, GVG 300 mg/kg on test day (2.5 h before test)
[6] = pairing Vehicle/Vehicle, GVG 300 mg/kg on test day

CC(=O)Oc1ccc2c3c1O[C@H]1[C@@H](OC(C)=O)C=C[C@H]4[C@@H](C2)N(C)CC[C@@]341 [Heroin, heroin]
Time spent in chambers, Paired (male Sprague-Dawley rats [1]; [4]): 10.9 ± 0.4 min | Time spent in chambers, Unpaired (male Sprague-Dawley rats [1]; [4]): 4.1 ± 0.4 min

CN1CC[C@]23c4c5ccc(O)c4O[C@H]2[C@@H](O)C=C[C@H]3[C@H]1C5 [Morphine, morphine]
Increase of DA concentrations above baseline in the NAcc ([2]; morphine alone, 7 mg/kg i.p., baseline = 100%, p<0.01): 50% | Licking latency (male Sprague-Dawley rats [3]; pretreatment vehicle 1 ml/kg, treatment morphine 10 mg/kg 30 min before hot plate): 27 ± 3.0 s

C=CC(N)CCC(=O)O (stereo not drawn) [GVG, 4-amino-5-hexanoic acid]
Inhibition of the DA response to morphine in the NAcc ([2]; GVG 150 mg/kg i.p. 2.5 hours prior to morphine 7 mg/kg): no significant inhibition | Attenuation of the DA response to morphine in the NAcc ([2]; GVG 300 mg/kg i.p. 2.5 hours prior to morphine 7 mg/kg, p<0.01): 62% | Attenuation of the DA response to morphine in the NAcc ([2]; GVG 500 mg/kg i.p. 2.5 hours prior to morphine 7 mg/kg, p<0.001): 67% | Effect of GVG on the analgesic potency of morphine (male Sprague-Dawley rats [3]; GVG 300 mg/kg i.p. 2.5 hrs prior to morphine 10 mg/kg i.p.): does not alter the analgesic potency of morphine | Licking latency (male Sprague-Dawley rats [3]; pretreatment GVG 300 mg/kg (2.5 h before), treatment morphine 10 mg/kg): 27 ± 2.9 s | Licking latency (male Sprague-Dawley rats [3]; pretreatment GVG 300 mg/kg (2.5 h before), treatment vehicle 1 ml/kg): 17 ± 1.4+ sec | Effect on expression of heroin-induced CPP (male Sprague-Dawley rats [1]; GVG 300 mg/kg on test day): blocked the expression of heroin-induced CPP | Time spent in chambers, Paired (male Sprague-Dawley rats [1]; [5]): 6.6 ± 0.7 min | Time spent in chambers, Unpaired (male Sprague-Dawley rats [1]; [5]): 8.4 ± 0.7 min | Time spent in chambers, Paired (male Sprague-Dawley rats [1]; [6]): 7.4 ± 0.3 min | Time spent in chambers, Unpaired (male Sprague-Dawley rats [1]; [6]): 7.6 ± 0.3 min
